Results from patent publication US3960860A, “2-Methyl-5,7-dihydrothieno-[3,4d]-pyrimidine” (priority 1975, dated 1976).

Key:
[1] = comparison of toxicity and potency with the chloroanalog; details: versus other analogs, such as its chloroanalog
[2] = character of vanilla flavor; details: 0.2 parts of 0.1% in propylene glycol; compared with the material omitted
Protocol: A vanilla flavor is prepared by admixing the following ingredients: […]

[3] = organoleptic evaluation (odor and flavor) of the pyrimidine
[4] = fragrance of perfume composition; details: thienopyrimidine replaces 20 parts of caraway essence
[5] = taste of aqueous solutions; details: by itself at levels of 10 parts in 10^10, aqueous solutions
Excerpt: (§1) It can thus be used as an enhancer to reduce the quantity of artificial sweeteners required or to permit diminution of the quantity of natural sweeteners such as sugar.

[6] = enhancement of the sweetness of foods; details: in foods; levels as low as
Excerpt: as §1

[7] = acute oral toxicity (LD50, no-effect dose); details: in vivo
[8] = 0.1% alcohol solution on a blotter strip

## Cc1ncc2c(n1)CSC2 [2-methyl-5,7-dihydrothieno-[3,4d]-pyrimidine]
[1]
  potency relative to other analogs: less potent
  toxicity relative to other analogs: less toxic
[2]
  quality of vanilla flavor: distinctly "natural" quality
[3]; 0.001 ppm in aqueous solution
  odor/flavor character in aqueous solution: sweet roasted nut, popcorn character with a light astringency
[3]; 0.003 ppm in water
  flavor in water: popcorn, roasted peanut flavor with an astringency like peanut skins
[3]; [8]
  odor: sharp, fresh roasted, sweet nut with a popcorn character
  persistence of odor: the odor seems to disappear because of anosmia
[3]; 10^^-6 ppm in chicken broth
  flavor effect in chicken broth: accentuates the root vegetable flavor notes
[3]; colorless crystalline material
  odor of the crystalline material: powerful odor of roasted fresh, sweet nut with a definite popcorn character
[4]
  caraway note after replacement of caraway essence: the natural caraway note of the original perfume is retained
[5]
  aftertaste imparted to aqueous solutions: sweet, pleasant, and non-bitter aftertaste
[6]
  level at which the material begins to enhance the sweetness of foods: 10 parts in 10^12
[7]; po, test animals, read-out: maximum no effective dose or the lowest dosage level at which essentially no signs of toxicity in test animals is observed
  NOAEL: 34 mg/kg
[7]; acute, oral
  LD50: 260 ± 40 mg/kg
